Measured values: ChEMBL document CHEMBL2390842, “Development of indole/indazole-aminopyrimidines as inhibitors of c-Jun N-terminal kinase (JNK): optimization for JNK potency and physicochemical properties” (Bioorg Med Chem Lett, 2013)
In brackets after ≈: the same amount, converted by molar mass. Values belong to the molecule of their own block, whether it stands above or below them.

Columns and labels:
[1] = target: c-Jun N-terminal kinase, JNK (Homo sapiens, UniProt P45983+P53779+P45984); assay: Inhibition of JNK-mediated c-Jun activation in TNFalpha-induced human SW1353 cells preincubated for 30 mins prior to TNFalpha treatment measured after 20 mins; format: cell-based
[2] = target: Mitogen-activated protein kinase 8 (Homo sapiens, UniProt P45983); assay: Inhibition of human JNK1alpha1 using GST-tagged ATF2 as substrate preincubated for 10 mins prior to substrate addition measured after 30 mins by microplate scintillation counting analysis
Mitogen-activated protein kinase 8, sequence (P45983 whole entry): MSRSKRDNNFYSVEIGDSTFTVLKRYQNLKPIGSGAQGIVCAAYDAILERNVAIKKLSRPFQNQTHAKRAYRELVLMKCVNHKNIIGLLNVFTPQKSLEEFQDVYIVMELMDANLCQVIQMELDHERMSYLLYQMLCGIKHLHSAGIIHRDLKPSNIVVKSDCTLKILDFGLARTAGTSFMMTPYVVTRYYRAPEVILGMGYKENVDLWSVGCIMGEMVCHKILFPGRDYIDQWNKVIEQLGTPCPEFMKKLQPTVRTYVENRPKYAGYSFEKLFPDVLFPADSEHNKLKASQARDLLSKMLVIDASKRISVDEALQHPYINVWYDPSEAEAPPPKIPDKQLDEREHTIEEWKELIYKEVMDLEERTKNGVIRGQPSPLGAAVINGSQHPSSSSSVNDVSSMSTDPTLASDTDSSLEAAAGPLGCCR

[3] = Permeability from apical to basolateral side in human Caco2 cells; format: ADME, cell-based; conditions: Caco-2
[4] = Solubility of the compound in phosphate buffer at pH 6.4; format: physicochemical
[5] = test system: Caco-2; assay: Efflux ratio of permeability from […] side in human Caco2 cells; format: ADME, cell-based
[6] = Clearance in rat at 0.5 mg/kg, iv; format: ADME, organism-based; parameters: dose 0.5 mg/kg, route intravenous; conditions: in vivo
[7] = Half life in rat at 2 mg/kg, po; format: ADME, organism-based; parameters: dose 2 mg/kg, route oral; conditions: in vivo
[8] = Half life in rat at 0.5 mg/kg, iv; format: ADME, organism-based; parameters: dose 0.5 mg/kg, route intravenous; conditions: in vivo
[9] = Oral bioavailability in rat at 2 mg/kg; format: ADME, organism-based; conditions: in vivo
[10] = target: Mitogen-activated protein kinase 9 (Homo sapiens, UniProt P45984); assay: Inhibition of human JNK2alpha2 using GST-tagged ATF2 as substrate preincubated for 10 mins prior to substrate addition measured after 30 mins by microplate scintillation counting analysis
Mitogen-activated protein kinase 9, sequence (P45984 whole entry): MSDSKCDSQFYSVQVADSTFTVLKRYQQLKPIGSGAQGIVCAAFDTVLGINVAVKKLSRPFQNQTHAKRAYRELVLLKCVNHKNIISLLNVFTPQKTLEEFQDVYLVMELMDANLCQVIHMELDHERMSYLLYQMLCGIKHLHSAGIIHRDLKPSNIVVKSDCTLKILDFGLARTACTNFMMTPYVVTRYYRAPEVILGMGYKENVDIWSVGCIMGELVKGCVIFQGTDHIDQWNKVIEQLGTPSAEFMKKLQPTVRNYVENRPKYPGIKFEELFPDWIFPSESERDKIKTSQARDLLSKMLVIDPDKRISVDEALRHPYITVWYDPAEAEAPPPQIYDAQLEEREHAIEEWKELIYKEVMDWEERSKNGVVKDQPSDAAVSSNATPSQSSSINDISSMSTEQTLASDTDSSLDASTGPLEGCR

[11] = Half life in dog at 2 mg/kg, po; format: ADME, organism-based, Canis lupus familiaris; parameters: dose 2 mg/kg, route oral; conditions: in vivo
[12] = Oral bioavailability in dog at 2 mg/kg; format: ADME, organism-based, Canis lupus familiaris; conditions: in vivo
[13] = Half life in dog at 0.5 mg/kg, iv; format: ADME, organism-based, Canis lupus familiaris; parameters: dose 0.5 mg/kg, route intravenous; conditions: in vivo
[14] = Clearance in dog at 0.5 mg/kg, iv; format: ADME, organism-based, Canis lupus familiaris; parameters: dose 0.5 mg/kg, route intravenous; conditions: in vivo

SMILES: CS(=O)(=O)N[C@H]1CC[C@H](Nc2nccc(-n3ccc4c(N5CCC(S(C)(=O)=O)CC5)cccc43)n2)CC1
- IC50 [1]: 710 nM

SMILES: CS(=O)(=O)N[C@H]1CC[C@H](Nc2nccc(-n3ccc4c(N5CCN(C(=O)CC#N)CC5)cccc43)n2)CC1
- IC50 [1]: 200 nM
- IC50 [2]: 5 nM

SMILES: CS(=O)(=O)C1CCN(c2cccc3c2cnn3-c2ccnc(N[C@H]3CC[C@H](O)CC3)n2)CC1
- Papp A→B [3]: 3.8 ×10⁻⁶ cm/s
- solubility [4]: 3.5 µg/mL (≈ 7.44 µM)
- IC50 [1]: 290 nM
- IC50 [2]: 6 nM
- Ratio [5]: 5

SMILES: CS(=O)(=O)C1CCN(c2cccc3c2ccn3-c2ccnc(N[C@H]3CC[C@H](C(=O)N4CCC(O)CC4)CC3)n2)CC1
- Papp A→B [3]: 0.4 ×10⁻⁶ cm/s

SMILES: CS(=O)(=O)C1CCN(c2cccc3c2ccn3-c2ccnc(N[C@H]3CC[C@H](C(=O)N4CCn5cnnc5C4)CC3)n2)CC1
- Papp A→B [3]: 0.1 ×10⁻⁶ cm/s

The next lines start with the values.

- clearance [6]: 47 mL/min/kg
- Papp A→B [3]: 10.5 ×10⁻⁶ cm/s
- solubility [4]: 5.2 µg/mL (≈ 11.1 µM)
- half-life [7]: 2 h
- half-life [8]: 0.7 h
- bioavailability [9]: 100%
- IC50 [10]: 20 nM
- half-life [11]: 3.4 h
- bioavailability [12]: 15%
- half-life [13]: 4.5 h
- clearance [14]: 10.6 mL/min/kg
SMILES: CS(=O)(=O)C1CCN(c2cccc3c2ccn3-c2ccnc(N[C@H]3CC[C@H](O)CC3)n2)CC1

- IC50 [1]: 700 nM
- IC50 [2]: 7 nM
SMILES: CC(=O)N[C@H]1CC[C@H](Nc2nccc(-n3ccc4c(N5CCC(S(C)(=O)=O)CC5)cccc43)n2)CC1
